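Dose response: 5 concentrations. Exposure: 48 h. Format: 96-well plates. Endpoint: linear interpolation; highest concentration if not reached. At the GI50, growth is halved. TGI marks complete inhibition of growth.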
Key:
Test in all cases: growth of human tumour cells (NCI), 48 h
BT-549 breast = system: BT-549 breast
HCT-15 colon = system: HCT-15 colon
TK-10 renal = system: TK-10 renal
M14 melanoma = system: M14 melanoma
UACC-62 melanoma = system: UACC-62 melanoma
HCC-2998 colon = system: HCC-2998 colon
SW-620 colon = system: SW-620 colon
U251 CNS = system: U251 CNS
NCI-H23 lung = system: NCI-H23 lung
MALME-3M melanoma = system: MALME-3M melanoma
OVCAR-5 ovarian = system: OVCAR-5 ovarian
ACHN renal = system: ACHN renal
COLO 205 colon = system: COLO 205 colon
A549 NSCLC = system: A549 NSCLC
MDA-MB-435 = system: MDA-MB-435
SNB-75 CNS = system: SNB-75 CNS
CAKI-1 renal = system: CAKI-1 renal
NCI/ADR-RES ovarian = system: NCI/ADR-RES ovarian
MCF7 breast = system: MCF7 breast
DU-145 prostate = system: DU-145 prostate
NCI-H460 lung = system: NCI-H460 lung
OVCAR-3 ovarian = system: OVCAR-3 ovarian
HOP-92 NSCLC = system: HOP-92 NSCLC
RXF 393 renal = system: RXF 393 renal
MDA-MB-231 breast = system: MDA-MB-231 breast
PC-3 prostate = system: PC-3 prostate
OVCAR-8 ovarian = system: OVCAR-8 ovarian
KM12 colon = system: KM12 colon
RPMI-8226 leukemia = system: RPMI-8226 leukemia
MOLT-4 leukemia = system: MOLT-4 leukemia
K-562 leukemia = system: K-562 leukemia
A498 renal = system: A498 renal
HOP-62 NSCLC = system: HOP-62 NSCLC
HS 578T breast = system: HS 578T breast
SK-MEL-5 melanoma = system: SK-MEL-5 melanoma
SK-MEL-2 melanoma = system: SK-MEL-2 melanoma
SK-OV-3 ovarian = system: SK-OV-3 ovarian
HT29 colon = system: HT29 colon
SR leukemia = system: SR leukemia
NCI-H522 lung = system: NCI-H522 lung
SF-539 CNS = system: SF-539 CNS
CCRF-CEM leukemia = system: CCRF-CEM leukemia
HCT-116 colon = system: HCT-116 colon
T-47D breast = system: T-47D breast
786-0 renal = system: 786-0 renal
SN12C renal = system: SN12C renal
NCI-H226 lung = system: NCI-H226 lung
SF-268 CNS = system: SF-268 CNS
IGROV1 ovarian = system: IGROV1 ovarian
SK-MEL-28 melanoma = system: SK-MEL-28 melanoma
SNB-19 CNS = system: SNB-19 CNS
HL-60(TB) leukemia = system: HL-60(TB) leukemia
UACC-257 melanoma = system: UACC-257 melanoma
SF-295 CNS = system: SF-295 CNS
UO-31 renal = system: UO-31 renal
EKVX NSCLC = system: EKVX NSCLC
OVCAR-4 ovarian = system: OVCAR-4 ovarian
LOX IMVI melanoma = system: LOX IMVI melanoma

**Q.** For `Brc1ccc2[nH]cc([C@H]3CN[C@@H](c4c[nH]c5ccc(Br)cc45)CN3)c2c1`, which TGI (BT-549 breast) is on record?
**A.** > 62 µM

**Q.** What about the TGI (HCT-15 colon) of the same molecule?
**A.** 3.81 µM

**Q.** What about the TGI (TK-10 renal) of the same molecule?
**A.** 4.78 µM

**Q.** And the TGI (M14 melanoma)?
**A.** 3.38 µM

**Q.** And the TGI (UACC-62 melanoma)?
**A.** > 45.9 µM

**Q.** And the TGI (HCC-2998 colon)?
**A.** 3.17 µM

**Q.** And the TGI (SW-620 colon)?
**A.** > 22.1 µM

**Q.** And the TGI (U251 CNS)?
**A.** 5.02 µM

**Q.** What about the TGI (NCI-H23 lung) of the same molecule?
**A.** 3.62 µM

**Q.** And the GI50 (MALME-3M melanoma)?
**A.** 2.79 µM

**Q.** And the TGI (MALME-3M melanoma)?
**A.** 15 µM

**Q.** And the GI50 (OVCAR-5 ovarian)?
**A.** 3.25 µM

**Q.** And the TGI (OVCAR-5 ovarian)?
**A.** 12 µM

**Q.** What about the TGI (ACHN renal) of the same molecule?
**A.** 5.01 µM

**Q.** And the TGI (COLO 205 colon)?
**A.** 3.24 µM

**Q.** And the TGI (A549 NSCLC)?
**A.** 7.17 µM

**Q.** What about the TGI (MDA-MB-435) of the same molecule?
**A.** 3.18 µM

**Q.** What about the GI50 (SNB-75 CNS) of the same molecule?
**A.** 1.5 µM

**Q.** What about the TGI (SNB-75 CNS) of the same molecule?
**A.** 8.46 µM

**Q.** What about the TGI (CAKI-1 renal) of the same molecule?
**A.** 4.88 µM

**Q.** What about the TGI (NCI/ADR-RES ovarian) of the same molecule?
**A.** 4.52 µM

**Q.** And the TGI (MCF7 breast)?
**A.** 3.3 µM

**Q.** And the TGI (DU-145 prostate)?
**A.** 5.25 µM

**Q.** What about the GI50 (NCI-H460 lung) of the same molecule?
**A.** 3.04 µM

**Q.** And the TGI (NCI-H460 lung)?
**A.** 16.3 µM

**Q.** What about the TGI (OVCAR-3 ovarian) of the same molecule?
**A.** 3.8 µM

**Q.** And the TGI (HOP-92 NSCLC)?
**A.** 6.05 µM

**Q.** What about the TGI (RXF 393 renal) of the same molecule?
**A.** > 25.4 µM

**Q.** And the GI50 (MDA-MB-231 breast)?
**A.** 1.85 µM

**Q.** And the TGI (MDA-MB-231 breast)?
**A.** 3.81 µM

**Q.** What about the TGI (PC-3 prostate) of the same molecule?
**A.** 5.27 µM

**Q.** And the TGI (OVCAR-8 ovarian)?
**A.** 3.7 µM

**Q.** And the TGI (KM12 colon)?
**A.** 3.25 µM

**Q.** And the TGI (RPMI-8226 leukemia)?
**A.** 6.04 µM

**Q.** And the TGI (MOLT-4 leukemia)?
**A.** 4.95 µM

**Q.** And the TGI (K-562 leukemia)?
**A.** 4.54 µM

**Q.** What about the TGI (A498 renal) of the same molecule?
**A.** 4.53 µM

**Q.** And the TGI (HOP-62 NSCLC)?
**A.** > 41.2 µM

**Q.** And the TGI (HS 578T breast)?
**A.** 28.2 µM

**Q.** What about the TGI (SK-MEL-5 melanoma) of the same molecule?
**A.** 6.77 µM

**Q.** And the TGI (SK-MEL-2 melanoma)?
**A.** 5.54 µM

**Q.** And the TGI (SK-OV-3 ovarian)?
**A.** > 23.5 µM

**Q.** What about the TGI (HT29 colon) of the same molecule?
**A.** 4.68 µM

**Q.** What about the TGI (SR leukemia) of the same molecule?
**A.** 5.2 µM

**Q.** And the TGI (NCI-H522 lung)?
**A.** 3.27 µM

**Q.** What about the TGI (SF-539 CNS) of the same molecule?
**A.** 4.06 µM

**Q.** What about the TGI (CCRF-CEM leukemia) of the same molecule?
**A.** 6.11 µM

**Q.** And the TGI (HCT-116 colon)?
**A.** 4.68 µM

**Q.** And the GI50 (T-47D breast)?
**A.** 3.62 µM

**Q.** And the TGI (T-47D breast)?
**A.** 18 µM

**Q.** What about the TGI (786-0 renal) of the same molecule?
**A.** 5.68 µM

**Q.** What about the TGI (SN12C renal) of the same molecule?
**A.** 9.89 µM

**Q.** What about the TGI (NCI-H226 lung) of the same molecule?
**A.** 7.76 µM

**Q.** What about the TGI (SF-268 CNS) of the same molecule?
**A.** 9.05 µM

**Q.** What about the TGI (IGROV1 ovarian) of the same molecule?
**A.** 3.78 µM

**Q.** What about the TGI (SK-MEL-28 melanoma) of the same molecule?
**A.** > 52.6 µM

**Q.** What about the TGI (SNB-19 CNS) of the same molecule?
**A.** > 23.9 µM

**Q.** And the TGI (HL-60(TB) leukemia)?
**A.** 4.08 µM

**Q.** And the GI50 (UACC-257 melanoma)?
**A.** 7.39 µM

**Q.** What about the TGI (UACC-257 melanoma) of the same molecule?
**A.** 21.4 µM

**Q.** And the GI50 (SF-295 CNS)?
**A.** 12.2 µM

**Q.** What about the TGI (SF-295 CNS) of the same molecule?
**A.** 27.6 µM

**Q.** What about the TGI (UO-31 renal) of the same molecule?
**A.** 5.29 µM

**Q.** What about the TGI (EKVX NSCLC) of the same molecule?
**A.** 6.46 µM

**Q.** What about the TGI (OVCAR-4 ovarian) of the same molecule?
**A.** 4.44 µM

**Q.** What about the TGI (LOX IMVI melanoma) of the same molecule?
**A.** 2.82 µM

Reference: PubChem BioAssay (NCI)
